Several values for one entry are separate records, joined by “and”; a condition that tells them apart may be missing. Equal values may be shown once.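 Values below derive from 48-hour exposures of cells grown in 96-well plates, with endpoints linearly interpolated between the two concentrations bracketing the appropriate inhibition level. Abbreviation: GI50, concentration required for 50% inhibition of growth. TGI: concentration producing complete growth inhibition.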
Key:
Assay in all cases: DTP human tumour cell line panel, 48 h
HCT-116 colon = tested on: HCT-116 colon
HOP-62 NSCLC = tested on: HOP-62 NSCLC
HT29 colon = tested on: HT29 colon
M14 melanoma = tested on: M14 melanoma
PC-3 prostate = tested on: PC-3 prostate
SK-MEL-2 melanoma = tested on: SK-MEL-2 melanoma
SW-620 colon = tested on: SW-620 colon

CC1C(C)N(C(=O)CCl)c2ccccc2N1C(=O)CCl (stereo not drawn)
GI50 (HCT-116 colon): 0.185 µM | TGI (HCT-116 colon): 0.406 µM | GI50 (HOP-62 NSCLC): 1.62 µM | TGI (HOP-62 NSCLC): 3.52 µM | GI50 (HT29 colon): 0.225 µM | TGI (HT29 colon): 0.523 µM | GI50 (M14 melanoma): 0.597 µM | TGI (M14 melanoma): 2.2 µM | GI50 (PC-3 prostate): 1.19 µM | TGI (PC-3 prostate): 2.85 µM | GI50 (SK-MEL-2 melanoma): 1.66 µM | TGI (SK-MEL-2 melanoma): 4.54 µM | GI50 (SW-620 colon): 0.209 µM | TGI (SW-620 colon): 0.485 µM

CC(=O)NC(C)(C)C1CCC(C)=C(c2ccccc2)C1 (stereo not drawn)
TGI (HCT-116 colon): > 100 µM | TGI (HOP-62 NSCLC): > 100 µM | TGI (HT29 colon): > 100 µM | TGI (M14 melanoma): > 100 µM | TGI (PC-3 prostate): > 100 µM | TGI (SW-620 colon): > 100 µM

COC(=O)C1=C(O)[C@H](C(=O)OC)C2(O)C(C(=O)OC)[C@H](c3ccc(OC(=O)C(C)c4ccc(CC(C)C)cc4)cc3)C[C@@H]1[C@@H]2C(=O)OC (stereo partly drawn)
GI50 (HCT-116 colon): > 50 µM | TGI (HCT-116 colon): > 50 µM | GI50 (HOP-62 NSCLC): 31.7 µM | TGI (HOP-62 NSCLC): > 50 µM | GI50 (M14 melanoma): 25.3 µM | TGI (M14 melanoma): > 50 µM | GI50 (PC-3 prostate): 35 µM | TGI (PC-3 prostate): > 50 µM | GI50 (SK-MEL-2 melanoma): 24.9 µM | TGI (SK-MEL-2 melanoma): > 50 µM | GI50 (SW-620 colon): 18.1 µM | TGI (SW-620 colon): > 50 µM

COc1ccc(C/C(=C(\C)c2ccc(OCCN3CCCC3)cc2)c2ccc(OCCN3CCCC3)cc2)cc1
GI50 (HOP-62 NSCLC): 2.18 µM | TGI (HOP-62 NSCLC): 7.02 µM | GI50 (HT29 colon): 1.58 µM | TGI (HT29 colon): 3.07 µM | GI50 (M14 melanoma): 1.67 µM | TGI (M14 melanoma): 3.5 µM | GI50 (PC-3 prostate): 1.75 µM | TGI (PC-3 prostate): 4.07 µM | GI50 (SK-MEL-2 melanoma): 1.87 µM | TGI (SK-MEL-2 melanoma): 3.53 µM | GI50 (SW-620 colon): 1.75 µM | TGI (SW-620 colon): 3.65 µM

C[C@]12CC[C@H]3[C@@H](CC=C4C[C@@H](N5CCCC5)CC[C@@]43C)[C@@H]1C/C(=C\c1cccc(OCCN3CCOCC3)c1)[C@@H]2O
GI50 (HCT-116 colon): 1.66 µM | TGI (HCT-116 colon): 5.13 µM | GI50 (HOP-62 NSCLC): 2.76 µM | TGI (HOP-62 NSCLC): 9.83 µM | GI50 (HT29 colon): 0.532 µM | TGI (HT29 colon): 15.7 µM | GI50 (M14 melanoma): 1.96 µM | TGI (M14 melanoma): 4.07 µM | GI50 (SK-MEL-2 melanoma): 14.1 µM | TGI (SK-MEL-2 melanoma): 31.8 µM | GI50 (SW-620 colon): 2.82 µM | TGI (SW-620 colon): 18.8 µM

O=C([CH-]C(=O)c1ccccc1)c1ccccc1.[CH-]1CCCCC1.[CH-]1CCCCC1.[CH-]1CCCCC1.[Sn+4]
GI50 (HCT-116 colon): 6.3 µM | TGI (HCT-116 colon): 19.9 µM | GI50 (HOP-62 NSCLC): 7.85 µM | TGI (HOP-62 NSCLC): 20 µM | GI50 (HT29 colon): 14 µM | TGI (HT29 colon): 38.5 µM | GI50 (M14 melanoma): 8.3 µM | TGI (M14 melanoma): 22.4 µM | GI50 (SK-MEL-2 melanoma): 3.39 µM | TGI (SK-MEL-2 melanoma): 11.9 µM | GI50 (SW-620 colon): 3 µM | TGI (SW-620 colon): 9.72 µM

O=C1CC(c2cccc(F)c2)Nc2cc3c(cc21)OCO3 (stereo not drawn)
GI50 (HCT-116 colon): < 0.01 µM | TGI (HCT-116 colon): > 100 µM | GI50 (HOP-62 NSCLC): 2.65 µM | TGI (HOP-62 NSCLC): > 100 µM | TGI (HT29 colon): 0.0667 µM | GI50 (M14 melanoma): < 0.01 µM | TGI (M14 melanoma): > 100 µM | GI50 (PC-3 prostate): < 0.01 µM | TGI (PC-3 prostate): > 100 µM | GI50 (SW-620 colon): < 0.01 µM | TGI (SW-620 colon): > 100 µM

O=C(Nc1ccccc1)Nc1ccc2cc3ccc(NC(=O)Nc4ccccc4)cc3nc2c1
GI50 (HCT-116 colon): 0.232 µM | TGI (HCT-116 colon): 0.615 µM | GI50 (HOP-62 NSCLC): 1.59 µM | TGI (HOP-62 NSCLC): 3.4 µM | GI50 (HT29 colon): 1.89 µM | TGI (HT29 colon): 3.73 µM | GI50 (SK-MEL-2 melanoma): 1.72 µM | TGI (SK-MEL-2 melanoma): 3.24 µM | GI50 (SW-620 colon): 0.331 µM | TGI (SW-620 colon): 1.19 µM

NCCCC[C@@H]1NC(=O)[C@H](CC(=O)O)NC(=O)CNC(=O)[C@H](CCCN=C(N)N)NC(=O)[C@@H](N)CSSC[C@@H](C(=O)O)NC(=O)[C@H](CC(=O)O)NC(=O)[C@@H]2CCCN2C(=O)CNC1=O
GI50 (HCT-116 colon): > 100 µM | TGI (HCT-116 colon): > 100 µM | GI50 (HOP-62 NSCLC): > 100 µM | TGI (HOP-62 NSCLC): > 100 µM | GI50 (HT29 colon): > 100 µM | TGI (HT29 colon): > 100 µM | GI50 (M14 melanoma): > 100 µM | TGI (M14 melanoma): > 100 µM | GI50 (PC-3 prostate): > 100 µM | TGI (PC-3 prostate): > 100 µM | GI50 (SW-620 colon): > 100 µM | TGI (SW-620 colon): > 100 µM

COc1ccc2c(c1OC)CO[C@@H]2[C@H]1c2c(cc3c(c2OC)OCO3)CCN1S(=O)(=O)c1cn(C)cn1
GI50 (HCT-116 colon): 0.494 µM | TGI (HCT-116 colon): > 100 µM | GI50 (HOP-62 NSCLC): 1.88 µM | TGI (HOP-62 NSCLC): > 100 µM | GI50 (HT29 colon): 0.614 µM | TGI (HT29 colon): > 100 µM | GI50 (M14 melanoma): 0.513 µM | TGI (M14 melanoma): > 100 µM | GI50 (SK-MEL-2 melanoma): 2.17 µM | TGI (SK-MEL-2 melanoma): > 100 µM | GI50 (SW-620 colon): 1.2 µM | TGI (SW-620 colon): > 100 µM

COC(=O)N[C@H](C(=O)O)C(C)O[Si](C)(C)C(C)(C)C (stereo partly drawn)
TGI (HCT-116 colon): > 100 µM | TGI (HOP-62 NSCLC): > 100 µM | TGI (HT29 colon): > 100 µM | TGI (PC-3 prostate): > 100 µM | TGI (SW-620 colon): > 100 µM

NC(=O)c1cc([N+](=O)[O-])c(Cl)c([N+](=O)[O-])c1Cl
GI50 (HCT-116 colon): 0.228 µM | TGI (HCT-116 colon): 0.582 µM | GI50 (HOP-62 NSCLC): 1.75 µM | TGI (HOP-62 NSCLC): 3.16 µM | GI50 (HT29 colon): 0.308 µM | TGI (HT29 colon): 1.05 µM | GI50 (PC-3 prostate): 1.58 µM | TGI (PC-3 prostate): 3.1 µM | GI50 (SK-MEL-2 melanoma): 1.71 µM | TGI (SK-MEL-2 melanoma): 3.16 µM | GI50 (SW-620 colon): 0.291 µM | TGI (SW-620 colon): 1.07 µM

CCCCCCCCCCCCCC[N+](C)(C)CCCCCCCCCCCCCC
GI50 (PC-3 prostate): 1.85 µM | TGI (PC-3 prostate): 4.45 µM

COc1ccc(-c2nc(-c3ccc(C)cc3)cn3ccnc23)cc1
GI50 (HCT-116 colon): 2.61 µM | TGI (HCT-116 colon): > 50 µM | GI50 (HOP-62 NSCLC): 13.9 µM | TGI (HOP-62 NSCLC): > 50 µM | GI50 (M14 melanoma): 3.23 µM | TGI (M14 melanoma): > 50 µM | GI50 (PC-3 prostate): 4.44 µM | TGI (PC-3 prostate): > 50 µM | GI50 (SK-MEL-2 melanoma): 20.8 µM | TGI (SK-MEL-2 melanoma): > 50 µM | GI50 (SW-620 colon): 2.8 µM | TGI (SW-620 colon): > 50 µM

COc1cc(/C=C/C(=O)/C=C/c2ccc(-n3ccnc3C)cc2)ccc1O
GI50 (HOP-62 NSCLC): 3.18 µM | TGI (HOP-62 NSCLC): 10.5 µM | GI50 (HT29 colon): 1.95 µM | TGI (HT29 colon): 3.9 µM | GI50 (M14 melanoma): 2.25 µM | TGI (M14 melanoma): 5.94 µM | GI50 (SK-MEL-2 melanoma): 26 µM | TGI (SK-MEL-2 melanoma): 84.2 µM | GI50 (SW-620 colon): 2.23 µM | TGI (SW-620 colon): 5.63 µM

CCCCCCCCCCCCCCCCCCn1cc[n+](C)c1
GI50 (HT29 colon): 0.403 µM and 0.358 µM | TGI (HT29 colon): 1.64 µM and 1.45 µM | GI50 (SW-620 colon): 0.624 µM | TGI (SW-620 colon): 1.96 µM

Source: PubChem BioAssay (NCI)
